Measured values published in patent US20250223301A1, “KINASE INHIBITORS, PREPARATION METHODS AND USES THEREOF” (InventisBio Co., Ltd., priority 2022, published 2025).

Legend:
[1] = system: PBMC; test: Human PBMC IL-2 assay; format: cell-based; details: anti-CD3/CD28 stimulation overnight, IL-2 level
Method: PBMC (frozen) obtained from health donor were thawed in RPMI-1640 medium with 10% FBS and incubated for 4 h at 37° C. In a 96-well plate, −200,000 PBMC cells in 160 uL were added to each assay well. Ten microliter compound solution (10 uM to 0.6 nM, 8 points with 4-fold dilution) were added to cells in each well and incubated for 60 minutes at 37° C. Then 30 uL anti-CD3/CD28 antibody (Catalog #10991, Stemcell) were added to cells and incubated overnight at 37° C. After the incubation, 16 uL supernatants were transferred into a new 384-well white assay plate for cytokine analysis. IL-2 level was quantified using Human IL-2 kit (Catalog #62HIL02PEG, Cisbio) as described in the manufacturer manual.
(§1) X is log of compound concentration, Y is the IL-2 concentration, increasing as X increases.

[2] = system: Jurkat cells; test: Jurkat IL-2 assay; format: cell-based; details: Homo sapiens, anti-CD3/CD28 stimulation overnight, IL-2 level
Method: Jurkat cells (ATCC) were cultured in RPMI-1640 medium supplemented with 10% FBS. In a 96-well plate, −250,000 cells in 130 uL were added to each assay well. Ten microliter compound solution (5 uM to 2.3 nM, 8 points with 3-fold dilution) were added to cells in each well and incubated for 60 minutes at 37° C. Then 10 uL anti-CD3/CD28 antibody (Catalog #10991, Stemcell) were added and incubated overnight at 37° C. After the incubation, 16 uL supernatants were transferred into a new 384-well white assay plate for cytokine analysis. IL-2 was quantified using Human IL-2 kit (Catalog #62HIL02PEG, Cisbio) as described in the manufacturer manual.
as §1

Compound	EC50 [1] [nM]	EC50 [2] [nM]
CCC(c1ccc(F)c(F)c1)N1C[C@H]2COc3c(c4nc(C#N)ccc4n(C)c3=O)N2C[C@H]1CC (single isomer, unassigned) [Compound 183]	156	77
CC[C@H]1CN([C@@H](CC)c2nc(C(F)(F)F)no2)[C@H](CC)CN1c1nc2nncn2c2ccc(C#N)nc12 (stereo in doubt) [Compound 135]	69	70
CC[C@H]1CN([C@@H](CC)c2ccc(C(F)(F)F)cc2C)[C@H](CC)CN1c1nc2nncn2c2ccc(C#N)nc12 (stereo in doubt) [Compound 137]	96	248
Cn1c(=O)nc(N2CCC[C@]3(CC2)CC(c2ccc(OC(F)(F)F)cc2)=NO3)c2nc(C#N)ccc21 (stereo in doubt) [Compound 139]	869	251
Cn1c(=O)nc(N2CCC[C@@]3(CC2)CC(c2ccc(OC(F)(F)F)cc2)=NO3)c2nc(C#N)ccc21 (stereo in doubt) [Compound 140]	259	598
CC[C@@H]1CN2c3c(c(=O)n(C)c4ccc(C#N)nc34)OC[C@@H]2CN1[C@H](CC)c1ccc(C(F)(F)F)cc1F (stereo in doubt) [Compound 143]	178	483
CC[C@@H]1CN2c3c(c(=O)n(C)c4ccc(C#N)nc34)OC[C@@H]2CN1[C@@H](CC)c1ccc(C(F)(F)F)cc1F (stereo in doubt) [Compound 144]	61	76
CC[C@@H]1CN2c3c(c(=O)n(C)c4ccc(C#N)nc34)OC[C@@H]2CN1[C@@H](CC)c1c(F)cc(F)cc1F (stereo in doubt) [Compound 147]	96	55
CC[C@@H]1CN2c3c(c(=O)n(C)c4ccc(C#N)nc34)OC[C@@H]2CN1[C@H](CC)c1cccc(C(F)(F)F)c1 (stereo in doubt) [Compound 148]	582	209
CC[C@@H]1CN2c3c(c(=O)n(C)c4ccc(C#N)nc34)OC[C@@H]2CN1[C@@H](CC)c1cccc(C(F)(F)F)c1 (stereo in doubt) [Compound 149]	162	76
CCC[C@@H](c1ccc(C(F)(F)F)cc1)N1C[C@H]2COc3c(c4nc(C#N)ccc4n(C)c3=O)N2C[C@H]1CC (stereo in doubt) [Compound 153]	85	43
CC[C@@H]1CN2c3c(c(=O)n(C)c4ccc(C#N)nc34)OC[C@@H]2CN1[C@H](c1ccc(Cl)cc1)c1ccccn1 (stereo in doubt) [Compound 156]	83	124
CCC[C@@H]1CN2c3c(c(=O)n(C)c4ccc(C#N)nc34)OC[C@@H]2CN1[C@H](C)c1ccc(C(F)(F)F)cc1 (stereo in doubt) [Compound 158]	579	277
CC[C@@H]1CN2c3c(c(=O)n(C)c4ccc(C#N)nc34)OC[C@@H]2CN1[C@@H](c1ccc(F)cc1)c1nc(C2CC2)no1 (stereo in doubt) [Compound 159]	41	12
CC[C@@H]1CN2c3c(c(=O)n(C)c4ccc(C#N)nc34)OC[C@@H]2CN1[C@H](c1ccc(F)cc1)c1nc(C2CC2)no1 (stereo in doubt) [Compound 160]	75	21
CC[C@@H]1CN2c3c(c(=O)n(C)c4ccc(C#N)nc34)OC[C@@H]2CN1[C@@H](CC)c1ccc(C#N)cc1 (stereo in doubt) [Compound 161]	53	26
CC[C@@H]1CN2c3c(c(=O)n(C)c4ccc(C#N)nc34)OC[C@@H]2CN1[C@H](CC)c1ccc(C#N)cc1 (stereo in doubt) [Compound 162]	786	100
CCC[C@@H]1CN2c3c(c(=O)n(C)c4ccc(C#N)nc34)OC[C@@H]2CN1[C@@H](C)c1ccc(OCC2CC2)cc1F (stereo in doubt) [Compound 163]	340	–
CCC[C@@H]1CN2c3c(c(=O)n(C)c4ccc(C#N)nc34)OC[C@@H]2CN1[C@H](C)c1ccc(OCC2CC2)cc1F (stereo in doubt) [Compound 164]	233	–
CC[C@H]1CN([C@H](c2ccc(SC(F)(F)F)cc2)C2CC2)[C@H](CC)CN1c1nc2nncn2c2ccc(C#N)nc12 (stereo in doubt) [Compound 168]	32	42
CC[C@@H]1CN2c3c(c(=O)n(C)c4ccc(C#N)nc34)OC[C@@H]2CN1[C@@H](CC)c1c(F)ccc(F)c1F (stereo in doubt) [Compound 170]	186	246
CC[C@@H]1CN2c3c(c(=O)n(C)c4ccc(C#N)nc34)OC[C@@H]2CN1[C@H](CC)c1c(F)ccc(F)c1F (stereo in doubt) [Compound 171]	1250	–
CC[C@@H]1CN2c3c(c(=O)n(C)c4ccc(C#N)nc34)OC[C@@H]2CN1[C@@H](CC)c1ccc(F)cc1F (stereo in doubt) [Compound 174]	25	13

Compound	EC50 [1] [nM]	EC50 [2] [nM]
CC[C@H](c1ccc(C(F)(F)F)cc1)N1C[C@H]2COc3c(c4nc(C#N)ccc4n(C)c3=O)N2C[C@H]1C (stereo in doubt) [Compound 178]	299	–
CC[C@@H](c1ccc(C(F)(F)F)cc1)N1C[C@H]2COc3c(c4nc(C#N)ccc4n(C)c3=O)N2C[C@H]1C (stereo in doubt) [Compound 179]	58	29
CC[C@@H]1CN2c3c(c(=O)n(C)c4ccc(C#N)nc34)OC[C@@H]2CN1[C@H](CC)c1ccc(F)c(F)c1 (stereo in doubt) [Compound 182]	1880	–
CC[C@@H]1CN2c3c(c(=O)n(C)c4ccc(C#N)nc34)OC[C@@H]2CN1[C@H](CC)c1ccc(S(C)(=O)=O)cc1 (stereo in doubt) [Compound 185]	7230	–
CC[C@@H]1CN2c3c(c(=O)n(C)c4ccc(C#N)nc34)OC[C@@H]2CN1[C@@H](CC)c1ccc(C(F)(F)F)cn1 (stereo in doubt) [Compound 186]	23	13
CC[C@@H]1CN2c3c(c(=O)n(C)c4ccc(C#N)nc34)OC[C@@H]2CN1[C@H](CC)c1ccc(C(F)(F)F)cn1 (stereo in doubt) [Compound 187]	322	–
CC[C@H]1CN([C@@H](CC)c2ccc(C3CC3)nc2)[C@H](CC)CN1c1nc2nncn2c2ccc(C#N)nc12 (stereo in doubt) [Compound 188]	577	–
CC[C@H]1CN([C@H](CC)c2ccc(C3CC3)nc2)[C@H](CC)CN1c1nc2nncn2c2ccc(C#N)nc12 (stereo in doubt) [Compound 189]	276	–
CC[C@H]1CN([C@@H](CC)c2ccc(F)cc2F)[C@H](CC)CN1c1nc2nncn2c2ccc(C#N)nc12 (stereo in doubt) [Compound 194]	79	104
CC[C@H]1CN([C@H](CC)c2ccc(F)cc2F)[C@H](CC)CN1c1nc2nncn2c2ccc(C#N)nc12 (stereo in doubt) [Compound 195]	2200	1110
CC[C@@H]1CN2c3c(c(=O)n(C)c4ccc(C#N)nc34)OC[C@@H]2CN1[C@H](CC)c1ccc(F)c(Cl)c1 (stereo in doubt) [Compound 196]	846	1280
CC[C@H]1CN([C@@H](CC)c2ccc(F)c(F)c2)[C@H](CC)CN1c1nc2nncn2c2ccc(C#N)nc12 (stereo in doubt) [Compound 200]	42	86
CC[C@H]1CN([C@H](CC)c2ccc(F)c(F)c2)[C@H](CC)CN1c1nc2nncn2c2ccc(C#N)nc12 (stereo in doubt) [Compound 201]	520	822
CC[C@H]1CN([C@H](c2ccc(C(F)(F)F)cc2)C(C)C)[C@H](CC)CN1c1nc2nncn2c2ccc(C#N)nc12 (stereo in doubt) [Compound 204]	107	202
CC[C@H](c1ccc(F)c(Cl)c1)N1C[C@H]2COc3c(c4nc(C#N)ccc4n(C)c3=O)N2C[C@H]1C (stereo in doubt) [Compound 237]	1330	–
CC[C@@H]1CN2c3c(c(=O)n(C4CCC4)c4ccc(C#N)nc34)OC[C@@H]2CN1[C@@H](CC)c1ccc(C(F)(F)F)cc1 (stereo in doubt) [Compound 263]	–	582
C[C@@H]1CN2c3c(c(=O)n(C)c4ccc(C#N)nc34)OC[C@@H]2CN1[C@@H](C)c1ccc(Cl)cc1Cl (stereo in doubt) [Compound 268]	890	–
Cc1ccc2oc(C3(C)CCN(c4c(C#N)c(=O)n(C)c5ccc(C#N)nc45)CC3)nc2c1 [Compound 7]	372	–
C[C@H]1CC2(CCN1c1nc(=O)n(C)c3ccc(C#N)nc13)CC(c1ccc(OC(F)(F)F)cc1)=NO2 (stereo partly shown) [Compound 50]	–	435
CC[C@@H]1CN2c3c(c(=O)n(C)c4ccc(C#N)nc34)OC[C@@H]2CN1c1nc2cc(C)ccc2o1 [Compound 165]	375	–
CC[C@H]1CN2[C@@H](COC[C@@H]2c2ccc(C(F)(F)F)cc2)CN1c1nc2nncn2c2ccc(C#N)nc12 [Compound 192]	3050	–
CC[C@@H]1CN2c3c(c(=O)n(C)c4ccc(C#N)nc34)N(C)C[C@@H]2CN1[C@H](CC)c1ccc(C(F)(F)F)cc1 [Compound 220]	3840	–
